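How tested: cells in 96-well plates exposed to compound for 48 hours at five concentrations. At the TGI there is no net growth.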
Columns and labels:
Experiment in all cases: NCI-60 cell line screen, 48 h
[1] = tested on: BT-549 breast
[2] = tested on: NCI-H522 lung
[3] = tested on: NCI-H460 lung
[4] = tested on: HCT-15 colon
[5] = tested on: NCI-H226 lung
[6] = tested on: SK-OV-3 ovarian
[7] = tested on: HCT-116 colon
[8] = tested on: RPMI-8226 leukemia
[9] = tested on: MDA-MB-231 breast
[10] = tested on: HCC-2998 colon
[11] = tested on: MDA-MB-435
[12] = tested on: UACC-62 melanoma
[13] = tested on: HT29 colon
[14] = tested on: SNB-75 CNS
[15] = tested on: MOLT-4 leukemia
[16] = tested on: OVCAR-8 ovarian
[17] = tested on: OVCAR-4 ovarian
[18] = tested on: SN12C renal
[19] = tested on: COLO 205 colon
[20] = tested on: PC-3 prostate
[21] = tested on: HL-60(TB) leukemia
[22] = tested on: SF-295 CNS
[23] = tested on: SK-MEL-2 melanoma
[24] = tested on: CAKI-1 renal
[25] = tested on: NCI-H23 lung
[26] = tested on: LOX IMVI melanoma
[27] = tested on: A549 NSCLC
[28] = tested on: MDA-N
[29] = tested on: SK-MEL-28 melanoma
[30] = tested on: SF-268 CNS
[31] = tested on: SR leukemia
[32] = tested on: OVCAR-3 ovarian
[33] = tested on: DU-145 prostate
[34] = tested on: MALME-3M melanoma
[35] = tested on: 786-0 renal
[36] = tested on: KM12 colon
[37] = tested on: MCF7 breast
[38] = tested on: SF-539 CNS
[39] = tested on: IGROV1 ovarian
[40] = tested on: OVCAR-5 ovarian
[41] = tested on: HS 578T breast
[42] = tested on: UO-31 renal
[43] = tested on: M14 melanoma
[44] = tested on: CCRF-CEM leukemia
[45] = tested on: HOP-92 NSCLC
[46] = tested on: SNB-19 CNS
[47] = tested on: SK-MEL-5 melanoma
[48] = tested on: ACHN renal
[49] = tested on: TK-10 renal
[50] = tested on: U251 CNS
[51] = tested on: T-47D breast
[52] = tested on: HOP-62 NSCLC
[53] = tested on: SW-620 colon
[54] = tested on: UACC-257 melanoma
[55] = tested on: NCI/ADR-RES ovarian
[56] = tested on: EKVX NSCLC
[57] = tested on: RXF 393 renal
[58] = tested on: K-562 leukemia
[59] = tested on: A498 renal

CC1OC2OC3C(OCC(O)C3O)OC(=O)[C@]34CCC(C)(C)CC3C3=CCC5[C@@]6(C)C[C@H](O)[C@H](OC7OC(CO)C(O)C(O)C7OC7OCC(OC(=O)CC(C)(O)CC(=O)OC1C(OC1OC(CO)C(O)C(O)C1O)C2O)C(O)C7O)[C@@](C)(CO)C6CC[C@@]5(C)[C@]3(C)CC4 (stereo partly drawn)
TGI [1]: 21.1 µM | TGI [2]: 22.5 µM | TGI [3]: 22.7 µM | TGI [4]: 22.5 µM | TGI [5]: 34 µM | TGI [6]: 22.8 µM | TGI [7]: 16.5 µM | TGI [8]: 25.2 µM | TGI [9]: 21.1 µM | TGI [10]: 8.52 µM | TGI [11]: 11.4 µM | TGI [12]: 19.2 µM | TGI [13]: 19.4 µM | TGI [14]: 22.9 µM | TGI [15]: 21.3 µM | TGI [16]: 23.6 µM | TGI [17]: 17.1 µM | TGI [18]: 23.3 µM | TGI [19]: 7.61 µM | TGI [20]: 16.9 µM | TGI [21]: 6.29 µM | TGI [22]: 13.4 µM | TGI [23]: 13.5 µM | TGI [24]: 16.1 µM | TGI [25]: 14.1 µM | TGI [26]: 20.6 µM | TGI [27]: 13.5 µM | TGI [28]: 7.76 µM | TGI [29]: 6.22 µM | TGI [30]: 22.2 µM | TGI [31]: 17 µM | TGI [32]: 19.3 µM | TGI [33]: 17.3 µM | TGI [34]: 17.5 µM | TGI [35]: 15.5 µM | TGI [36]: 19.3 µM | TGI [37]: 23.6 µM | TGI [38]: 26.8 µM | TGI [39]: 16.2 µM | TGI [40]: 18.9 µM | TGI [41]: 30.1 µM | TGI [42]: 14.9 µM | TGI [43]: 15 µM | TGI [44]: 28 µM | TGI [45]: 21.6 µM | TGI [46]: 22.9 µM | TGI [47]: 28.8 µM | TGI [48]: 17.9 µM | TGI [49]: 21.1 µM | TGI [50]: 18.6 µM | TGI [51]: 20.3 µM | TGI [52]: 8.75 µM | TGI [53]: 20.3 µM | TGI [54]: 12.7 µM | TGI [55]: 19.1 µM

C=C(C)[C@@H]1CC[C@]2(C(=O)O)CC[C@]3(C)[C@H](CCC4[C@@]5(C)CC[C@H](C(=O)/C=C/c6ccc(O)c(O)c6)C(C)(C)[C@@H]5CC[C@]43C)[C@@H]12 (stereo partly drawn)
TGI [1]: > 100 µM | TGI [3]: 16.2 µM | TGI [4]: 26.8 µM | TGI [6]: 19.4 µM | TGI [7]: > 100 µM | TGI [9]: 35.7 µM | TGI [10]: 7 µM | TGI [11]: 16.7 µM | TGI [12]: 27.6 µM | TGI [14]: > 100 µM | TGI [15]: > 100 µM | TGI [16]: 54.5 µM | TGI [17]: > 100 µM | TGI [19]: 13.8 µM | TGI [20]: 21.8 µM | TGI [21]: > 100 µM | TGI [56]: > 100 µM | TGI [22]: 18.4 µM | TGI [23]: 38 µM | TGI [24]: 16.8 µM | TGI [25]: 9.62 µM | TGI [26]: > 100 µM | TGI [27]: > 100 µM | TGI [57]: > 100 µM | TGI [28]: 15.9 µM | TGI [30]: > 100 µM | TGI [31]: > 100 µM | TGI [32]: 22.5 µM | TGI [33]: 28.1 µM | TGI [35]: 30.2 µM | TGI [36]: 28.2 µM | TGI [37]: 14.9 µM | TGI [39]: > 100 µM | TGI [40]: 26.7 µM | TGI [41]: 46.2 µM | TGI [42]: 12.9 µM | TGI [43]: 14.7 µM | TGI [58]: > 100 µM | TGI [44]: > 100 µM | TGI [46]: > 100 µM | TGI [47]: 18.8 µM | TGI [48]: 6.51 µM | TGI [49]: 39.9 µM | TGI [51]: 95.7 µM | TGI [52]: 17 µM | TGI [54]: 11 µM | TGI [55]: > 100 µM

CC(NC(=O)c1ccccc1)(C(=O)O)C(=O)O
TGI [1]: > 100 µM | TGI [2]: > 100 µM | TGI [3]: > 100 µM | TGI [4]: > 100 µM | TGI [5]: > 100 µM | TGI [6]: > 100 µM | TGI [7]: > 100 µM | TGI [8]: > 100 µM | TGI [9]: > 100 µM | TGI [11]: > 100 µM | TGI [12]: > 100 µM | TGI [13]: > 100 µM | TGI [14]: > 100 µM | TGI [15]: > 100 µM | TGI [16]: > 100 µM | TGI [17]: > 100 µM | TGI [18]: > 100 µM | TGI [19]: > 100 µM | TGI [20]: > 100 µM | TGI [21]: > 100 µM | TGI [56]: > 100 µM | TGI [22]: > 100 µM | TGI [23]: > 100 µM | TGI [24]: > 100 µM | TGI [25]: > 100 µM | TGI [26]: > 100 µM | TGI [27]: > 100 µM | TGI [57]: > 100 µM | TGI [28]: > 100 µM | TGI [29]: > 100 µM | TGI [30]: > 100 µM | TGI [31]: > 100 µM | TGI [32]: > 100 µM | TGI [33]: > 100 µM | TGI [34]: > 100 µM | TGI [35]: > 100 µM | TGI [36]: > 100 µM | TGI [37]: > 100 µM | TGI [38]: > 100 µM | TGI [39]: > 100 µM | TGI [40]: > 100 µM | TGI [41]: > 100 µM | TGI [59]: > 100 µM | TGI [42]: > 100 µM | TGI [43]: > 100 µM | TGI [58]: > 100 µM | TGI [44]: > 100 µM | TGI [45]: > 100 µM | TGI [46]: > 100 µM | TGI [47]: > 100 µM | TGI [48]: > 100 µM | TGI [49]: > 100 µM | TGI [50]: > 100 µM | TGI [51]: > 100 µM | TGI [52]: > 100 µM | TGI [53]: > 100 µM | TGI [54]: > 100 µM | TGI [55]: > 100 µM

N/C(=N\Nc1ccc(S(N)(=O)=O)cc1)c1cnccn1
TGI [1]: > 100 µM | TGI [2]: > 100 µM | TGI [3]: > 100 µM | TGI [4]: > 100 µM | TGI [5]: > 100 µM | TGI [6]: > 100 µM | TGI [7]: > 100 µM | TGI [8]: > 100 µM | TGI [9]: > 100 µM | TGI [10]: > 100 µM | TGI [11]: > 100 µM | TGI [12]: > 100 µM | TGI [13]: > 100 µM | TGI [14]: > 100 µM | TGI [15]: > 100 µM | TGI [16]: > 100 µM | TGI [17]: > 100 µM | TGI [18]: > 100 µM | TGI [19]: > 100 µM | TGI [20]: > 100 µM | TGI [21]: > 100 µM | TGI [56]: > 100 µM | TGI [22]: > 100 µM | TGI [23]: > 100 µM | TGI [24]: > 100 µM | TGI [25]: > 100 µM | TGI [26]: > 100 µM | TGI [27]: > 100 µM | TGI [57]: > 100 µM | TGI [28]: > 100 µM | TGI [29]: > 100 µM | TGI [30]: > 100 µM | TGI [31]: > 100 µM | TGI [32]: > 100 µM | TGI [33]: > 100 µM | TGI [34]: > 100 µM | TGI [35]: > 100 µM | TGI [36]: > 100 µM | TGI [37]: > 100 µM | TGI [39]: > 100 µM | TGI [40]: > 100 µM | TGI [41]: > 100 µM | TGI [59]: > 100 µM | TGI [42]: > 100 µM | TGI [43]: > 100 µM | TGI [58]: > 100 µM | TGI [44]: > 100 µM | TGI [45]: > 100 µM | TGI [46]: > 100 µM | TGI [47]: > 100 µM | TGI [48]: > 100 µM | TGI [49]: > 100 µM | TGI [50]: > 100 µM | TGI [51]: > 100 µM | TGI [52]: > 100 µM | TGI [53]: > 100 µM | TGI [54]: > 100 µM | TGI [55]: > 100 µM

— PubChem BioAssay (NCI)
